Assays:
Assay type in all cases: cell-based
NB4, AsR2 and IM9 cells = experiment: Apoptosis by propidium iodide staining and flow cytometry; details: 48 hours, all concentrations of arsenic tested
Protocol: Quantitation of apoptotic cells was performed as previously described (Hardin et al. J. Immunol. Methods. 1992; 154:99-107). Cells were treated, washed in buffer (PBS/5% FBS/0.01 M NaN3) at 4° C., pelleted, and resuspended in 0.5 ml of hypotonic fluorochrome solution containing 50 μg/ml propidium iodide (PI), 0.1% sodium citrate, and 0.1% Triton X-100™. Fluorescence was measured on a Becton-Dickinson™ FACS Calibur. Cells undergoing DNA fragmentation and apoptosis (those in which PI fluorescence was weaker than the typical G0-G1 cell cycle peak) were quantified using CellQUEST™ software.
To evaluate whether the growth inhibitory effect observed upon combined treatment of As2O3 and trolox in NB4, AsR2 and IM9 cells was due to the induction of apoptosis, cells were treated for 48 hours, subsequently stained with PI and analyzed by flow cytometry. […] To confirm an enhanced induction of apoptotic death, FITC-labeled Annexin V, which detects phosphatidylserine residues appearing on the external surface of early apoptotic cells, was used. Consistent with the increase in the subG0 subpopulation after PI staining, trolox augmented the percentage of cells positive for Annexin V (FIG. 2B lower panels). To further confirm the induction of apoptosis by the combination of As2O3 and trolox, we evaluated caspase 3 activation and PARP cleavage. […] Similar results were obtained with AsR2 and IM9 cells.

NB4 cells = experiment: Growth assay, viable cells by trypan blue exclusion, NB4; details: NB4, 100 μM trolox alone, any time point
Protocol: NB4, IM9 and AsR2 cells were seeded at 1×10^5 cells/ml in 24-well plates. Cells were treated with various concentrations of As2O3 or doxorubicin, alone or in combination with 100 μM trolox for six days. Viable cells were counted by trypan blue exclusion on day 1, 3 and 6. All cells were maintained at a density lower than 1×10^6 cells/ml through dilution as required, and media +/− treatment was replaced every third day. MCF-7, MDA-231 and T47D were seeded in 24-well plates at a density of 4000 cells/well. The next day, fresh media containing As2O3+/− trolox was added. On the days indicated, cells were fixed in 10% trichloroacetic acid and subsequently stained with sulforhodamine B (SRB). Bound SRB was solubilized in 10 mM unbuffered Tris and optical density was measured at 570 nm in a microplate reader.

Normal human PBMC = experiment: Colony forming unit assay of peripheral blood mononuclear cells
Protocol: Peripheral blood mononuclear cells (PBMC) were obtained from two healthy normal donors after obtaining informed consent and were collected into tubes containing 7.2 mg K2EDTA. The blood was diluted 1:3 in PBS, layered onto an equal volume of Ficoll-Plaque™ PLUS (Amershan Biosciences, Piscataway, N.J.) and centrifuged at 1500 rpm for 30 minutes. The mononuclear cell layer was collected and washed twice in PBS. Methylcellulose media was prepared by combining IMDM, 30% FBS, 1% bovine serum albumin, 10^−4M 2-mercaptoethanol, 2 mM L-glutamine, 0.1U penicillin, 0.1 μg/ml streptomycin, granulocyte-macrophage colony-stimulating factor (GM-CSF; 10 ng/ml), interleukin-3 (IL-3; 10 ng/ml0) and erythropoietin (EPO; 3U/ml). PBMC were seeded in this media at a concentration of 300,000 cells/ml and treated with or without As2O3, trolox or the combination. Cultures were performed in triplicate in 35 mm^2 dishes and incubated at 37° C. in 4% CO2. Colonies derived from […] (BFU-E) and CFU-GM were counted on day 7 and 13.

Heme oxygenase-1 (HO-1) = experiment: HO-1 protein levels by Western blot; details: NB4, IM9 and AsR2 cells, 24 hours
Protocol: Cell extracts were washed with cold PBS and resuspended in 0.1 ml lysis buffer (5 mM NaH2PO4, 1 mM DTT, 10% glycerol, 1 mM PMSF, 10 μg/ml each aprotinin and leupeptin, pH 7.4) at 4° C. Extracts were centrifuged at 14,000 rpm at 4° C., and supernatants were transferred to fresh tubes. Protein concentration was determined with the Bio-Rad™ protein assay (Bio-Rad, Mississauga, Ontario, Canada). To detect HO-1 or PARP, 50 μg of protein was added to an equal volume of 2× sample buffer and run on a 10% SDS-polyacrylamide gel. Proteins were transferred to nitrocellulose membranes (Bio-Rad), stained with Ponceau S in 5% acetic acid to ensure equal protein loading, and blocked with 5% milk in PBS containing 0.5% Triton X-100™ for 1 hour at room temperature. The membrane was hybridized overnight at 4° C. with antibody against PARP (1:1000; Oncogene) or 3 hours with an antibody against HO-1 (1:1000; StressGen). Following three washes with PBS and 0.5% Triton X-100™, blots were incubated with a goat anti-rabbit antibody (1:10,000; PharMingen) for one hour at room temperature. Bands were visualized by enhanced chemiluminescence (Amersham Pharmacia Biotech, Baie d'Urfe, Quebec, Canada). Immunostaining for β-actin was used to confirm equal protein loading. Immune complex kinase assays for c-jun kinase activity were performed as previously described (Davison et al. Blood. 2004; 103: 3496-3502).

Cc1c(C)c2c(c(C)c1O)CCC(C)(C(=O)O)O2 (stereo not shown) [trolox, Trolox]
apoptosis (PI staining) (NB4, AsR2 and IM9 cells): no effect on the apoptotic rate
effect on cell number (NB4 cells): no effect on cell number
colony formation (CFU-GM, BFU-E, CFU-E) (Normal human PBMC): did not inhibit colony formation
HO-1 protein induction (Heme oxygenase-1 (HO-1)): not detected

Source: patent US8784899B2, “Compositions and methods for cancer treatment” (priority 2005, dated 2014)
